According to patent US20230181614A1, “ADMINISTRATION OF CITICOLINE TO IMPROVE COGNITIVE PERFORMANCE, ATTENTIONAL PERFORMANCE, AND MOTOR FUNCTION” (KYOWA HAKKO BIO CO., LTD., priority 2014, published 2023):

Columns and labels:
Type in all cases: in vivo, human
[1] = tested on: Healthy subjects, ages 13-18; assay: Monitoring of Side Effects Scale (MOSES); settings: for V2 MOSES (Mean): Visit 2; for V3 MOSES (Mean): Visit 3; for MOSES V3-V2 Score (Mean): visit difference score V3-V2; for MOSES difference scores, between groups: visit 1 to visit 3 (so in the source); for MOSES, within-group change: visit 2 to 3
From the text: Study participants were screened by telephone prior to study enrollment. Healthy subjects, ages 13-18, with no significant medical conditions and no history of co-morbid psychiatric disorder, current Axis I or II diagnosis, or previous participation in a pharmacotherapeutic trial, were selected. Use of any psychotropic medication or any previous head injury resulting in loss of consciousness for 5 or more minutes were used as exclusion criteria. While no participant met criteria for a neuropsychiatric disorder at enrollment, clinical assessments were still completed throughout the study to evaluate changes in mood state. In addition, self-reports of sleep habits, lifestyle, and exercise routines were also administered at baseline as well as at each study visit to assess changes in health habits during study participation. Following the completion of Visit 1 assessment, participants were given their 28-day supply of citicoline (250 mg or 500 mg) or placebo, which was randomly assigned. They were instructed to take one capsule a day every day for the next 28 days. Visit 2 occurred fourteen days after Visit 1. At Visit 2, the remaining study pills were counted and participant dosage calendars were checked to ensure compliance with the protocol. Additional neuropsychological measures and clinical assessments were administered during this visit. Participants returned for Visit 3 fourteen days later, on the 28th day of their study participation. The pill bottle and the dosage calendar were collected from each participant. Urine and blood were again obtained. Participants also participated in similar clinical and neuropsychological testing and clinical measures that were given during visit 1. The MOSES is a scale designed to assess common symptoms or adverse events associated with psychopharmacological medications. This scale is divided into nine body areas representing a typical physical examination. The interviewer asks subjects whether they have each symptom on the measure and, if so, asks them to report the level of severity of the symptom on a scale from 0 (not present) to 4 (severe). […]

[2] = tested on: Healthy subjects, ages 13-18; assay: Positive and Negative Affect Scale for Children (PANAS-C)
From the text: Study participants were screened by telephone prior to study enrollment. Healthy subjects, ages 13-18, with no significant medical conditions and no history of co-morbid psychiatric disorder, current Axis I or II diagnosis, or previous participation in a pharmacotherapeutic trial, were selected. Use of any psychotropic medication or any previous head injury resulting in loss of consciousness for 5 or more minutes were used as exclusion criteria. While no participant met criteria for a neuropsychiatric disorder at enrollment, clinical assessments were still completed throughout the study to evaluate changes in mood state. In addition, self-reports of sleep habits, lifestyle, and exercise routines were also administered at baseline as well as at each study visit to assess changes in health habits during study participation. Following the completion of Visit 1 assessment, participants were given their 28-day supply of citicoline (250 mg or 500 mg) or placebo, which was randomly assigned. They were instructed to take one capsule a day every day for the next 28 days. Visit 2 occurred fourteen days after Visit 1. At Visit 2, the remaining study pills were counted and participant dosage calendars were checked to ensure compliance with the protocol. Additional neuropsychological measures and clinical assessments were administered during this visit. Participants returned for Visit 3 fourteen days later, on the 28th day of their study participation. The pill bottle and the dosage calendar were collected from each participant. Urine and blood were again obtained. Participants also participated in similar clinical and neuropsychological testing and clinical measures that were given during visit 1. The […] is a self-report questionnaire on which participants rate to what extent they are currently experiencing a variety of positive and negative emotions such as “excited” and “mad.” The PANAS was administered during each of the three visits to assess participant affect prior to taking the study drug as well as after taking the study drug over a period of 28 days.

[3] = tested on: Healthy subjects, ages 13-18; assay: Children's Depression Rating Scale (CDRS); settings: for CDRS Score, Mean: V3-V1
From the text: Study participants were screened by telephone prior to study enrollment. Healthy subjects, ages 13-18, with no significant medical conditions and no history of co-morbid psychiatric disorder, current Axis I or II diagnosis, or previous participation in a pharmacotherapeutic trial, were selected. Use of any psychotropic medication or any previous head injury resulting in loss of consciousness for 5 or more minutes were used as exclusion criteria. While no participant met criteria for a neuropsychiatric disorder at enrollment, clinical assessments were still completed throughout the study to evaluate changes in mood state. In addition, self-reports of sleep habits, lifestyle, and exercise routines were also administered at baseline as well as at each study visit to assess changes in health habits during study participation. Following the completion of Visit 1 assessment, participants were given their 28-day supply of citicoline (250 mg or 500 mg) or placebo, which was randomly assigned. They were instructed to take one capsule a day every day for the next 28 days. Visit 2 occurred fourteen days after Visit 1. At Visit 2, the remaining study pills were counted and participant dosage calendars were checked to ensure compliance with the protocol. Additional neuropsychological measures and clinical assessments were administered during this visit. Participants returned for Visit 3 fourteen days later, on the 28th day of their study participation. The pill bottle and the dosage calendar were collected from each participant. Urine and blood were again obtained. Participants also participated in similar clinical and neuropsychological testing and clinical measures that were given during visit 1. The CDRS is an investigator-administered scale that are widely used as observational measures of depressive symptoms in children. The scale was administered at each of the three visits to assess presence or absence of depressive symptoms.

What does the source list for `C[N+](C)(C)CCOP(=O)(O)OP(=O)([O-])OC[C@H]1O[C@@H](n2ccc(N)nc2=O)[C@H](O)[C@@H]1O` [citicoline, Cytidine 5′-diphosphocholine]?
V2 MOSES (Mean) ([1]; 250 mg/day group): 1.30; V3 MOSES (Mean) ([1]; 250 mg/day group): 1.04; MOSES V3-V2 Score (Mean) ([1]; 250 mg/day group): -0.26; MOSES difference scores, between groups ([1]; 250 mg/day vs 500 mg/day, p=0.64): no significant differences; MOSES, between groups ([1]; 250 mg/day vs 500 mg/day, visit 3, p=0.11): no significant difference; MOSES difference scores, between groups ([1]; 250 mg/day vs Placebo, p=0.70): no significant differences; MOSES, between groups ([1]; 250 mg/day vs Placebo, visit 3, p=0.21): no significant difference; MOSES, within-group change ([1]; 250 mg/day, p=0.34): no significant differences; V2 MOSES (Mean) ([1]; 500 mg/day group): 0.81; V3 MOSES (Mean) ([1]; 500 mg/day group): 0.38; MOSES V3-V2 Score (Mean) ([1]; 500 mg/day group): -0.43; MOSES, within-group change ([1]; 500 mg/day, p=0.07): trend toward significant differences; MOSES difference scores, between groups ([1]; Placebo vs 500 mg/day, p=0.30): no significant differences; MOSES, between groups ([1]; Placebo vs 500 mg/day, visit 3, p=0.85): No significant difference; MOSES difference scores, three groups ([1]; p=0.66): no significant differences; MOSES, overall analysis ([1]; three groups, visit 3, p=0.23): no significant differences; PANAS-C Negative Score, Mean ([2]; 250 mg/day, V1 (baseline)): 23.15; PANAS-C Positive Score, Mean ([2]; 250 mg/day, V1 (baseline)): 45.74; PANAS-C Negative Score, Mean ([2]; 250 mg/day, V3 (day 28)): 19.81; PANAS-C Positive Score, Mean ([2]; 250 mg/day, V3 (day 28)): 41.93; PANAS-C Negative Score, Mean ([2]; 250 mg/day, V3-V1): -3.33; PANAS-C Positive Score, Mean ([2]; 250 mg/day, V3-V1): -3.81; PANAS-C Negative Score, Mean ([2]; 500 mg/day, V1 (baseline)): 21.55; PANAS-C Positive Score, Mean ([2]; 500 mg/day, V1 (baseline)): 43.30; PANAS-C Negative Score, Mean ([2]; 500 mg/day, V3 (day 28)): 18.00; PANAS-C Positive Score, Mean ([2]; 500 mg/day, V3 (day 28)): 41.78; PANAS-C Negative Score, Mean ([2]; 500 mg/day, V3-V1): -3.55; PANAS-C Positive Score, Mean ([2]; 500 mg/day, V3-V1): -1.52; PANAS-C positive emotional attributes, between groups ([2]; Placebo vs 500 mg/day, visit 3, p=0.39): No significant effect; CDRS, Mean ([3]; 250 mg/day, V1 (baseline)): 16.89; CDRS, Mean ([3]; 250 mg/day, V3 (day 28)): 16.22; CDRS Score, Mean ([3]; 250 mg/day): -0.67; CDRS, Mean ([3]; 500 mg/day, V1 (baseline)): 16.33; CDRS, Mean ([3]; 500 mg/day, V3 (day 28)): 16.08; CDRS Score, Mean ([3]; 500 mg/day): -0.25
